Data on three molecules can be found in patent EP3168210A1, “CRYSTALLINE FORMS OF ENTINOSTAT” (SANDOZ AG, priority 2015, dated 2017).

The structures appear in SMILES notation.

Series [1] is described as follows: Compression study (hydraulic press, polymorphic form after compression). The series is classed as physicochemical. Particulars: about 100 mg powder compressed to 5 tonnes/cm^2, held for 1h; slight crystallinity decrease. As to the method:
The compression study was performed using a Specac hydraulic press. A sample powder (approx. 100mg) is loaded into a metal die (ring shaped metal holder). A snugly fitted billet (a cylinder-shaped metal rod) is then placed into the die, on top of the powder sample. The die and billet assembly is then placed into the hydraulic press and compressed to a pressure of 5 tonnes/cm^2 and held under that pressure for 1h. The billet is then removed and the disc extracted from the die.

Series [2] in a line: Water solubility of crystal forms measured by HPLC. The format is physicochemical. Particulars: 25°C. As to the method: The water solubilities at 25°C of different crystal forms of Entinostat have been measured by HPLC and are set out in the following table: […]

As to `Nc1ccccc1NC(=O)c1ccc(CNC(=O)OCc2cccnc2)cc1` [Form D, (pyridin-3-yl)methyl 4-(2-aminophenylcarbamoyl)benzylcarbamate], the “polymorphic form after compression” value in series [1] was “maintain the same polymorphic form”. Besides, the Water solubility in series [2] is 130 µg/mL.

Take `Nc1ccccc1NC(=O)c1ccc(CNC(=O)OCc2cccnc2)cc1` [Form B, (pyridin-3-yl)methyl 4-(2-aminophenylcarbamoyl)benzylcarbamate]: in series [1], the “polymorphic form after compression” value was “maintain the same polymorphic form”. In series [2], this molecule showed a Water solubility of 28 µg/mL.

In the case of `Nc1ccccc1NC(=O)c1ccc(CNC(=O)OCc2cccnc2)cc1` [Form A, (pyridin-3-yl)methyl 4-(2-aminophenylcarbamoyl)benzylcarbamate], the “polymorphic form after compression” value in series [1] is on record as “maintain the same polymorphic form”. In series [2], this molecule had a Water solubility of 48 µg/mL.
